Measured values taken from PMC6934184, “Selective DNA-PKcs inhibition extends the therapeutic index of localized radiotherapy and chemotherapy” (The Journal of Clinical Investigation, 2019).

Target: T1, MAP2K1 (MEK1) (Homo sapiens, UniProt Q02750)
T1 construct: purchased Thermo Fisher Scientific (Life Technologies) SelectScreen
Test: SelectScreen Z'LYTE
Type: biochemical
Details: ATP 100 µM
Method in brief: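 Percent values come from Thermo SelectScreen profiling of NU5455, combining activity and binding assays. CSF1R was run in Z'LYTE format at Km app ATP, and CAMK1 in Adapta format with ATP listed at 10.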

T1 sequence (Q02750 whole entry): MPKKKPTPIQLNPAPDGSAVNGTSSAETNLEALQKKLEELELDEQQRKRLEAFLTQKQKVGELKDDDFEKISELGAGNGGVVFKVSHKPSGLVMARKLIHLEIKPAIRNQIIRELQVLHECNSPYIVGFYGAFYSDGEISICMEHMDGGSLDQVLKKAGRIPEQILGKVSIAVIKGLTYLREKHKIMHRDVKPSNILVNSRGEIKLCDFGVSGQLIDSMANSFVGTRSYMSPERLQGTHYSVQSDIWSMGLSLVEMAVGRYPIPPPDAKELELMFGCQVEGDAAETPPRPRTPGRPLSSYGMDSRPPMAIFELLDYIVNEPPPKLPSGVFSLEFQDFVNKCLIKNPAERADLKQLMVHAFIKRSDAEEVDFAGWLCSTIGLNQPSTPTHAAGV

Question: With `CN(C(=O)CN1CCOCC1)c1ccc2sc3c(-c4cccc5c(=O)cc(N6CC7CCC(C6)O7)oc45)cccc3c2c1` [NU5455] as the molecule, how does the inhibition at 1 µM read?
Answer: 8.8%
